Data: patent US11858921B2, “Uracil derivatives as TRPA1 inhibitors” (Boehringer Ingelheim International GmbH, priority 2021, dated 2024)

Tests used:
human TRPA1 ion channel = biological target: T1, human TRPA1 ion channel (Homo sapiens, UniProt O75762); experiment: Assay A: TRPA1 assay (FLIPR calcium, AITC agonism); format: cell-based; details: read-out: hTRPA1 IC50
T1 construct: host or cells: HEK293
Experimental: A human HEK293 cell line over-expressing the human TRPA1 ion channel (Perkin Elmer, Product No. AX-004-PCL) is used as a test system for compound efficacy and potency. Compound activity is determined by measuring the effect of compounds on intracellular calcium concentration induced by AITC (Allylisothiocyanat) agonism in a FLIPRtetra system (Molecular Devices).
The cells are obtained as frozen cells in cryo-vials and stored until use at −150° C.
Cells are grown in culture medium (MEM/EBSS medium with 10% FCS and 0.4 mg/ML Geneticin). […] For sub-culturing cells are detached from flasks by Versene. At the day before the assay, cells are detached, washed twice with medium (MEM/EBSS medium with 10% FCS) and 20000 cells in 20 μl/well are seeded to Poly D-Lysin biocoated 384-well plates (black, clear bottom, Cat. 356697) from Corning. Plates are incubated for 24 hours at 37° C./5% CO2 before use in the assay.
The test compounds are dissolved in 100% DMSO at a concentration of 10 mM and in a first step diluted in DMSO to a concentration of 5 mM, followed by serial dilution steps in 100% DMSO. Dilution factor and number of dilution steps may vary according to needs. Typically 8 different concentrations by 1:5 dilutions are prepared, further intermediate dilutions (1:20) of the substances are carried out with HBSS/HEPES buffer (1×HEPES, Cat. 14065 from Gibco, 20 mM HEPES, Cat. 83264 from SIGMA, 0.1% BSA Cat. 11926 from Invitrogen, pH 7.4
At the assay day cells are washed 3× with assay puffer, 20 μL buffer remaining in the wells after washing. 10 μL Ca6 kit (Cat. R8191 MolecularDevices) loading buffer in HBSS/HEPES is added to the cells and the plates are incubated with lid for 120 minutes at 37°/5% CO2. 10 μL of compound or controls in HBSS/HEPES buffer/5% DMSO from the intermediate dilution plate are carefully added to the wells. […] Finally 10 μL of the agonist AITC 50 μM dissolved in HBSS/HEPES buffer/0.05% DMSO (final concentration 10 μM) is added to the wells followed by an additional read on the FLIPRtetra device for 10 minutes. The area under the signal curve (AUC) after AITC addition is used for IC50/% inhibition calculations Data evaluation and calculation:
Each assay microtiter plate contains wells with vehicle (1% DMSO) controls instead of compound as controls for AITC induced luminescence (100% CTL; high controls) and wells with vehicle controls without AITC as controls for non-specific changes in luminescence (0% CTL; low controls).
The analysis of the data is performed by the calculation of the area under signal curve of the individual wells. Based on this values the % value for the measurement of each substance concentration is calculated (AUC(sample)−AUC(low))*100/(AUC(high)−AUC(low)) using MegaLab software (in house development). The IC50 values are calculated from the % control values using MegaLab software. Calculation: [y=(a−d)/(1+(x/c)^b)+d], a=low value, d=high value; x=conc M; c=IC50 M; b=hill; y=% ctrl

[1] = Assay C: Hepatocyte clearance; format: in vitro ADME, human; details: hepatocyte suspension, 5% species serum, test compound 1 μM, up to 6 h
Experimental: Assay C: Hepatocyte Clearance
The metabolic degradation of the test compound is assayed in a hepatocyte suspension. Hepatocytes (cryopreserved) are incubated in Dulbecco's modified eagle medium (supplemented with 3.5 μg glucagon/500 mL, 2.5 mg insulin/500 mL and 3.75 mg/500 mL hydrocortison) containing 5% species serum.
The cells are incubated for six hours (incubator, orbital shaker) and samples (25 μl) are taken at 0, 0.5, 1, 2, 4 and 6 hours. Samples are transferred into acetonitrile and pelleted by centrifugation (5 min). The supernatant is transferred to a new 96-deepwell plate, evaporated under nitrogen and resuspended.
Decline of parent compound is analyzed by HPLC-MS/MS
CLint is calculated as follows CL_[…]=Dose/AUC=(CO/CD)/(AUD+clast/k)×1000/60. C0: initial concentration in the incubation [μM], CD: cell density of vital cells [10e6 cells/mL], AUD: area under the data [μM×h], clast: concentration of last data point [μM], k: slope of the regression line for parent decline [h−1].
The calculated in vitro hepatic intrinsic clearance can be scaled up to the intrinsic in vivo hepatic Clearance and used to predict hepatic in vivo blood clearance (CL) by the use of a liver model (well stirred model). CL_[…]_INVIVO [ml/min/kg]=(CL_[…] [μL/min/10e6 cells]×hepato-cellularity [10e6 cells/g liver]×liver factor [g/kg bodyweight])/1000 CL[ml/min/kg]=CL_[…]_INVIVO [ml/min/kg]×hepatic blood flow [ml/min/kg]/(CL_[…]_INVIVO [ml/min/kg]+hepatic blood flow [ml/min/kg]) Qh[%]=CL[ml/min/kg]/hepatic blood flow [ml/min/kg])
(§1) Hepatocellularity, human: 120×10e6 cells/g liver
(§2) Liver factor, human: 25.7 g/kg bodyweight
(§3) Blood flow, human: 21 ml/(min×kg)

[2] = Assay B: Microsomal clearance; format: in vitro ADME, human; details: pooled liver microsomes 1 mg/ml, test compound 1 μM, 37° C., NADPH
Experimental: Assay B: Microsomal Clearance:
The metabolic degradation of the test compound is assayed at 37° C. with pooled liver microsomes. The final incubation volume of 100 μl per time point contains TRIS buffer pH 7.6 at RT (0.1 M), magnesium chloride (5 mM), microsomal protein (1 mg/ml) and the test compound at a final concentration of 1 μM.
Following a short preincubation period at 37° C., the reactions are initiated by addition of beta-nicotinamide adenine dinucleotide phosphate, reduced form (NADPH, 1 mM) and terminated by transferring an aliquot into solvent after different time points (0, 5, 15, 30, 60 min). Additionally, the NADPH-independent degradation is monitored in incubations without NADPH, terminated at the last time point. The [%] remaining test compound after NADPH independent incubation is reflected by the parameter c(control) (metabolic stability). The quenched incubations are pelleted by centrifugation (10000 g, 5 min).
An aliquot of the supernatant is assayed by LC-MS/MS for the amount of parent compound. The half-life (t½ INVITRO) is determined by the slope of the semilogarithmic plot of the concentration-time profile.
The intrinsic clearance (CL_[…]) is calculated by considering the amount of protein in the incubation: CL_[…] [μl/min/mg protein]=(Ln 2/(half-life [min]*protein content [mg/ml]))*1000 CL_[…]_INVIVO [ml/min/kg]=(CL_[…] [μL/min/mg protein]×MPPGL [mg protein/g liver]×liver factor [g/kg bodyweight])/1000 Qh[%]=CL[ml/min/kg]/hepatic blood flow [ml/min/kg])
as §1, §2, §3

T1 sequence (O75762 whole entry): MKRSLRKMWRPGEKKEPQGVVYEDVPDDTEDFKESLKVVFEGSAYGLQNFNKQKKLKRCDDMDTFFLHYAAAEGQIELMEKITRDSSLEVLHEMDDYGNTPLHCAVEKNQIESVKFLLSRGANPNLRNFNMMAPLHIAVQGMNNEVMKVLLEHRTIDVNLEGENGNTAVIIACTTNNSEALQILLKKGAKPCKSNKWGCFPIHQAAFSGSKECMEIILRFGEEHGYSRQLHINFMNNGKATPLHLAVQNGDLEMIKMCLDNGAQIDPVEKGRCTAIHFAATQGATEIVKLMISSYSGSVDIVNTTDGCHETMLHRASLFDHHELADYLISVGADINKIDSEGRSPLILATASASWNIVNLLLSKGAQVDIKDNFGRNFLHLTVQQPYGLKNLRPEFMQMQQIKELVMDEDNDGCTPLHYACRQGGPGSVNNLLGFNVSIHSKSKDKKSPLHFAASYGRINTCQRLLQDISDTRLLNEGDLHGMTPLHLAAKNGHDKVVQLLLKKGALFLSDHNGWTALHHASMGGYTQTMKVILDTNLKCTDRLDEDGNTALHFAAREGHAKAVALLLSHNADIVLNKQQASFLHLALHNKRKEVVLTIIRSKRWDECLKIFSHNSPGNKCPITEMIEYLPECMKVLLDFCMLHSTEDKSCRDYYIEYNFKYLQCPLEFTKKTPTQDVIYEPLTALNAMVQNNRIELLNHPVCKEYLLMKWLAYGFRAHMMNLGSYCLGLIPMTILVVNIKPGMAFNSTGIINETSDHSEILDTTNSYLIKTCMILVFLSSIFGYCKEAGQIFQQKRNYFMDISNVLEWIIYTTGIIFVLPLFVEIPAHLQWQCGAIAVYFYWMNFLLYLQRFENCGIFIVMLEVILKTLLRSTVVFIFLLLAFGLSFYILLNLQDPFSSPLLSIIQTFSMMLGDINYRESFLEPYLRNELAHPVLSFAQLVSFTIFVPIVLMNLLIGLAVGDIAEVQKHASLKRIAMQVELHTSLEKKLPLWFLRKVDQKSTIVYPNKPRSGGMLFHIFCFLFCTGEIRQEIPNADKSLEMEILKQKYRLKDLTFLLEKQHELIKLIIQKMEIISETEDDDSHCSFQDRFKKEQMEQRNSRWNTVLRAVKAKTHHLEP

| IC50 (human TRPA1 ion channel) | human Hepatocytes [% Qh] [1] | human LM [% Qh] [2] | SMILES |
| --- | --- | --- | --- |
| 33 nM | 15 % Qh | <23 % Qh | Cn1c(=O)c(C(N)=O)cn(Cc2nc(C[C@H](O)c3cc4cc(F)ccc4o3)no2)c1=O [Example 5] |
| 57 nM | 17 % Qh | 24 % Qh | Cn1c(=O)c(C(N)=O)cn(Cc2nc(C[C@H](O)c3ccc(I)cc3)no2)c1=O [Example 6] |
| 15 nM | 21 % Qh | <23 % Qh | Cn1c(=O)c(C(N)=O)cn(Cc2nc(C[C@H](O)c3cc4cc(Cl)ccc4o3)no2)c1=O [Example 4] |
| 8 nM | 17 % Qh | 43 % Qh | Cn1c(=O)c(C(N)=O)cn(Cc2nc(C[C@H](O)c3cc4ccc(F)cc4s3)no2)c1=O [Example 3] |
| 84 nM | 8 % Qh | <23 % Qh | Cc1ccc([C@@H](O)Cc2noc(Cn3cc(C(N)=O)c(=O)n(C)c3=O)n2)cc1 [Example 7] |
| 6 nM | 24 % Qh | <23 % Qh | Cn1c(=O)c(C(N)=O)cn(Cc2nc(C[C@H](O)c3cc4ccccc4s3)no2)c1=O [Example 2] |
| 38 nM | 15 % Qh | <23 % Qh | Cn1c(=O)c(C(N)=O)cn(Cc2nc(C[C@H](O)c3ccc(Cl)cc3)no2)c1=O [Example 1, 1-({3-[(2S)-2-(4-chlorophenyl)-2-hydroxyethyl]-1,2,4-oxadiazol-5-yl}methyl)-3-methyl-2,4-dioxo-1,2,3,4-tetrahydropyrimidine-5-carboxamide] |
